Measurements taken from PubChem BioAssay (NCI).
“And” between values parts separate entries of the source, which are not always exact repeats. Equal entries are not always repeated.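 Cells were grown in 96-well plates and exposed to each compound for 48 hours at five concentrations; endpoints were interpolated linearly between bracketing concentrations, or set to the highest concentration if not reached. Abbreviation: GI50, concentration required for 50% inhibition of growth. TGI is the concentration that stops growth completely.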

How the values were obtained:
Assay in all cases: inhibition of tumour cell growth, NCI panel, 48 h
[1] = system: KM12 colon
[2] = system: SN12C renal
[3] = system: SNB-78 CNS
[4] = system: RPMI-8226 leukemia
[5] = system: SNB-19 CNS
[6] = system: KM20L2 colon
[7] = system: NCI-H226 lung
[8] = system: UACC-62 melanoma
[9] = system: MALME-3M melanoma
[10] = system: DMS 114 small cell lung
[11] = system: DMS 273 small cell lung
[12] = system: NCI/ADR-RES ovarian

SMILES	TGI [1] [µM]	TGI [2]	TGI [3] [µM]	TGI [4]	TGI [5] [µM]	TGI [6] [µM]	TGI [7] [µM]	TGI [8]	TGI [9]	TGI [10] [µM]	TGI [11] [µM]	TGI [12] [µM]	GI50 [2] [µM]	GI50 [9] [µM]	GI50 [1] [µM]	GI50 [4] [µM]	GI50 [12] [µM]	GI50 [5] [µM]	GI50 [7] [µM]	GI50 [8] [µM]
CC1(C)COC2C(N(Cc3ccccc3)Cc3ccccc3)C(=O)N21 (stereo not drawn)	> 100	> 100 µM	> 100	91.3 µM	71.8	> 100	> 100	61 µM	> 100 µM	–	–	–	–	–	–	–	–	–	–	–
COc1ccc(O)c(C(=O)CCC(=O)O)c1	> 100	> 100 µM	> 100	> 100 µM	> 100	–	> 100	> 100 µM	> 100 µM	> 100	> 100	–	–	–	–	–	–	–	–	–
CCC1=CCN(c2cc(C)ccn2)OC1c1ccccc1 (stereo not drawn)	> 100	> 100 µM	> 100	67.1 µM	> 100	> 100	> 100	> 100 µM	80.8 µM	> 100	> 100	–	–	–	–	–	–	–	–	–
COc1cc2c(c3c1c(=O)c1ccccc1n3C)C=CC(C)(C)O2	> 100	> 100 µM	> 100	> 100 µM	> 100	> 100	> 100	> 100 µM	> 100 µM	> 100	> 100	–	–	–	–	–	–	–	–	–
COC/N=C(\NC#N)NCOC	> 100	> 100 µM	–	> 70.8 µM	> 100	> 100	> 100	> 100 µM	> 100 µM	> 72.5	> 81.5	–	–	–	–	–	–	–	–	–
O=c1cc(-c2ccccc2)[nH]c2cc(F)cc(F)c12	> 100	> 100 µM	–	> 100 µM	–	–	80.5	63.9 µM	79.4 µM	93.2	> 100	–	–	–	–	–	–	–	–	–
CN/N=C(/c1nc2ccc([N+](=O)[O-])cc2[nH]c1=O)C(O)c1ccc(C(O)/C(=N\NC)c2nc3ccc([N+](=O)[O-])cc3[nH]c2=O)cc1 (stereo not drawn)	> 100	–	> 100	> 100 µM	> 100	> 100	> 100	> 100 µM	> 100 µM	> 100	> 100	–	–	–	–	–	–	–	–	–
O=C1CCC2(c3ccccc3)Nc3ccccc3N12 (stereo not drawn)	> 100	> 100 µM	> 100	> 100 µM	–	> 100	> 100	> 100 µM	> 100 µM	> 100	–	–	–	–	–	–	–	–	–	–
CC1=Nc2ccccc2SC(c2c(Cl)cccc2Cl)C1 (stereo not drawn)	2.15	2.7 µM	23.8	3.09 µM	2.7	2.98	3.05	2.52 µM	3.29 µM	3.19	2.19	–	–	–	–	–	–	–	–	–
Clc1ccccc1CN1COc2c(ccc3cccnc23)C1	18.1	23.2 µM	14	7.15 µM	> 100	35.9	19.4	8.56 µM	16.3 µM	6.19	11.1	–	–	–	–	–	–	–	–	–
CC(=O)c1ccc(NC(=O)C(=O)C(C(=O)/C=C/c2ccccc2)C2OC(=O)c3ccccc32)cc1 (stereo not drawn)	> 100	> 100 µM	> 100	> 100 µM	> 100	> 100	> 100	> 100 µM	> 100 µM	–	> 100	–	–	–	–	–	–	–	–	–
CC1(C)OC(=S)N(c2ccccc2)C12C=Cc1cc3ccccc3nc1S2 (stereo not drawn)	> 100	> 100 µM	–	> 100 µM	> 100	> 100	> 100	> 100 µM	> 100 µM	> 100	> 100	–	–	–	–	–	–	–	–	–
CCOc1cccc2c1N[S@@](=O)S2	> 100	> 100 µM	> 100	> 100 µM	> 100	> 100	> 100	> 100 µM	> 100 µM	–	> 100	–	–	–	–	–	–	–	–	–
N=c1c2ccccc2sc2nc3ccccc3n12	> 100	> 100 µM	> 100	–	> 100	–	> 100	> 100 µM	> 100 µM	> 100	> 100	–	–	–	–	–	–	–	–	–
CN(C)c1ccc(/C=C(\NC(=O)c2ccccc2)c2nc3ccc4c(c3[nH]2)C(=O)c2ccccc2C4=O)cc1	> 100	> 100 µM	> 100	> 100 µM	> 100	> 100	–	> 100 µM	> 100 µM	> 100	> 100	–	–	–	–	–	–	–	–	–
COc1ccc(/C=C2\CCC(CCN(C)C)(C3=CCCC3)C2=O)cc1 (stereo not drawn)	32.4	40.5 µM	56.2	48.7 µM	31.6	28.3	38.5	30.3 µM	32.6 µM	31.2	31.1	–	–	–	–	–	–	–	–	–
COc1ccc(/C=C(\NC(=O)c2ccccc2)c2nc3ccccc3[nH]2)cc1OC	> 100	> 100 µM	> 100	> 100 µM	> 100	> 100	> 100	> 100 µM	> 100 µM	> 100	–	–	–	–	–	–	–	–	–	–

SMILES	TGI [1] [µM]	TGI [2]	TGI [3] [µM]	TGI [4]	TGI [5] [µM]	TGI [6] [µM]	TGI [7] [µM]	TGI [8]	TGI [9]	TGI [10] [µM]	TGI [11] [µM]	TGI [12] [µM]	GI50 [2] [µM]	GI50 [9] [µM]	GI50 [1] [µM]	GI50 [4] [µM]	GI50 [12] [µM]	GI50 [5] [µM]	GI50 [7] [µM]	GI50 [8] [µM]
CCOC(=O)C1Cc2ccc3c4c(ccc(c24)C1)CC(C(=O)OCC)C3	> 100	> 100 µM	> 100	> 100 µM	> 100	> 100	> 100	> 100 µM	> 100 µM	> 100	> 100	–	–	–	–	–	–	–	–	–
COC(=O)C(=O)C(CC(=O)Nc1ccc(C)cc1)C(=O)OC (stereo not drawn)	> 100	> 100 µM	> 100	> 100 µM	> 100	> 100	> 100	> 100 µM	> 100 µM	> 100	–	–	–	–	–	–	–	–	–	–
COc1ccc(/C=C2/C(=O)N(C(=O)c3ccccc3O)N=C2C)cc1	> 100	> 32 µM	–	> 100 µM	> 100	> 100	32.3	> 100 µM	–	2.25	–	14.1	–	–	–	–	–	–	–	–
C#CCN(N=O)C(=O)ON1C(=O)CCC1=O	> 100	> 100 µM	> 100	> 100 µM	> 100	> 100	–	> 100 µM	> 100 µM	> 100	> 100	–	–	–	–	–	–	–	–	–
COc1cc(C(=O)N[C@H]2CCc3cc(OC)c(OC)c(OC)c3-c3ccc(SC)c(=O)cc32)cc(OC)c1OC	16.4	25 µM and 41.2 µM	–	25 µM and > 100 µM	> 100	–	–	25 µM and > 100 µM	17.5 µM and 14.9 µM	0.144	> 100	–	0.0145	0.0224	–	–	–	–	–	–
COC(=O)c1cc(=O)nc2cc3cccccc3n12	> 100	> 100 µM	–	> 100 µM	> 100	> 100	> 100	> 100 µM	> 100 µM	–	–	–	–	–	–	–	–	–	–	–
C1=Cc2nc1c(-c1ccccc1)c1ccc([nH]1)c(-c1ccccc1)c1nc(c(-c3ccccc3)c3ccc([nH]3)c2-c2ccccc2)C=C1	> 100	> 100 µM	> 100	> 100 µM	> 100	> 100	> 100	> 100 µM	> 100 µM	> 100	> 100	–	–	–	–	–	–	–	–	–
COC(=O)C(C(=O)C(=O)Nc1ccc(C)cc1C)c1csc(-n2nc(-c3ccccc3)cc2-c2ccccc2)n1 (stereo not drawn)	> 100	> 100 µM	> 100	–	> 100	> 100	> 100	> 100 µM	> 100 µM	> 100	> 100	–	–	–	–	–	–	–	–	–
C=C1C(=O)C23[C@H](O)C1CC[C@H]2[C@]12COC3(O)[C@@H](O)[C@@H]1C(C)(C)CC[C@@H]2O	31.4	35.3 µM	16.4	29.3 µM	32.7	28.3	–	23.6 µM	6.94 µM	21.3	27.3	–	–	–	–	–	–	–	–	–
COc1ccccc1-c1cc(=O)c2cc(C)c(C)c(C(=O)O)c2o1	> 100	> 100 µM	> 100	> 100 µM	> 100	> 100	–	> 100 µM	> 100 µM	> 100	> 100	–	–	–	–	–	–	–	–	–
OC1=CN=COc2ccccc21	> 100	> 100 µM	> 100	> 100 µM	> 100	> 100	–	> 100 µM	> 100 µM	> 100	> 100	–	–	–	–	–	–	–	–	–
CCSc1ccc([C@@H]2[C@@H](O)C(=O)N2c2cc(OC)c(OC)c(OC)c2)cc1	33.7	22.2 µM	–	12 µM	> 100	–	33.7	20.1 µM	50.4 µM	–	–	23.9	0.0441	15.8	< 0.0133	0.0279	0.0157	< 0.01	0.521	< 0.01
CCCCCCC(O)CC[C@H]1CCC[C@@H](C)N1 (stereo partly drawn)	< 10	> 100 µM	> 100	> 100 µM	< 10	< 10	> 100	> 100 µM	> 100 µM	> 31.6	> 100	–	–	–	–	–	–	–	–	–
N=c1ccc2nc3ccc(N)cc3sc-2c1	> 100	11 µM	–	26 µM	14.9	–	28.2	8.38 µM	32.5 µM	–	–	10.7	3.19	6.22	4.24	2.87	2.53	3.17	12.4	2.93
C[N+](C)(C)CC1CCCCC1=O (stereo not drawn)	> 100	> 100 µM	–	44.7 µM	> 100	4.65	> 100	34 µM	38.6 µM	> 100	> 100	–	–	–	–	–	–	–	–	–
O=c1c2c(-c3ccccc3)c3ccccc3nc2cnn1-c1ccccc1	> 100	> 100 µM	> 100	> 100 µM	> 100	> 100	> 100	> 100 µM	> 100 µM	> 100	> 100	–	–	–	–	–	–	–	–	–
CCOc1ccc(N=C(NC(=O)c2ccccc2)SC)cc1	–	> 100 µM	> 100	> 100 µM	> 100	> 100	> 100	> 100 µM	> 100 µM	> 100	> 100	–	–	–	–	–	–	–	–	–
